Literature values, collected in patent US9498462B2, “Doxepin trans isomers and isomeric mixtures and methods of using the same to treat sleep disorders” (Pernix Sleep Inc., priority 2006, dated 2016).

Experiments:
[1] = target: melatonin MT1 receptor (Homo sapiens, UniProt P48039)
[2] = target: T1, melatonin MT2 receptor (Homo sapiens, UniProt P49286)
T1 sequence (P49286 1-362): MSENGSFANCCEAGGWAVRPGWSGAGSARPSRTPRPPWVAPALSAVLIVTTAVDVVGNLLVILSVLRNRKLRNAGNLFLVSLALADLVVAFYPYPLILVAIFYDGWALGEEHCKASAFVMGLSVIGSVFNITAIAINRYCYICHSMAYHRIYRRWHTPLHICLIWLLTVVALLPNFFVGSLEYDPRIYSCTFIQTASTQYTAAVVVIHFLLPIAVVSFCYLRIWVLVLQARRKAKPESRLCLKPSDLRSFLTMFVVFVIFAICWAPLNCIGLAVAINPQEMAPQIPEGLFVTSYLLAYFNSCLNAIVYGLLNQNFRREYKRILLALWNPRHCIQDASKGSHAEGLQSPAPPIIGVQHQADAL

melatonin MT1 receptor, sequence (P48039 whole entry): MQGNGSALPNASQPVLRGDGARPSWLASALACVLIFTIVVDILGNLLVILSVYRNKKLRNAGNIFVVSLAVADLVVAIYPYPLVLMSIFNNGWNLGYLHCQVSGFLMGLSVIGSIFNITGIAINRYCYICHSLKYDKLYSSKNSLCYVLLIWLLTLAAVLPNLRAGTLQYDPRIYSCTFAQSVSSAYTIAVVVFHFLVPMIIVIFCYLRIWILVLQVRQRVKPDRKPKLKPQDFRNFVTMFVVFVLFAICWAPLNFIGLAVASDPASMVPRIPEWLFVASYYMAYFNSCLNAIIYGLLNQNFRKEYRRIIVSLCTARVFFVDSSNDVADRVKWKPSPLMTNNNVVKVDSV

CCC(=O)NCC[C@@H]1CCc2ccc3c(c21)CCO3 [Ramelteon, (S)—N-[2-(1,6,7,8-tetrahydro-2H-indeno-[5,4-b]furan-8-yl)ethyl]propionamide]
affinity for melatonin MT1 receptor [1]: high affinity | affinity for melatonin MT2 receptor [2]: high affinity
